Experimental data taken from patent US7332476B2, “Pyridyl substituted ketolide antibiotics” (Novartis AG, priority 2003, dated 2008).

Assays:
Experiment in all cases: MIC, broth microdilution (NCCLS)
Type in all cases: cell-based
[1] = tested on: Streptococcus pneumoniae Stpn_49619; settings: Table 7, Strain ID F (Table 6): S. pneumoniae Stpn_49619
Procedure: (§1) Strains. The bacterial isolates listed in Table 4 were cultivated from −70° C. frozen stocks by two consecutive overnight passages (P1, P2) at 35° C. on 5% blood agar (Remel, Lenexa, Kans.). Chocolate agar (Remel) is used for Haemophilus influenzae. H. influenzae and Streptococcus pneumoniae are incubated in 5-10% CO2
(§2) Drug Stock Preparation. To determine the amount of solvent to be used to give the desired final concentration, the formula “weight obtained in mg/final concentration in mg/ml” will be used. It will give the amount of solvent in ml needed to be added to give the desired concentration. For example, if 2.5 mg/ml is the desired concentration and the weight of compound is 13.7 mg, then the amount of solvent to be added is […]. Methanol is used as the solvent to dissolve the test compounds. Further dilution of stock is done in sterile, deionized water. Drug stocks are kept frozen at −70° C., protected from light.
(§3) Susceptibility Testing. MICs are determined by the broth microdilution method in accordance with the NCCLS guidelines. In brief, organism suspensions are adjusted to a 0.5 McFarland standard to yield a final inoculum between 3×10^5 and 7×10^5 CFU/ml. Drug dilutions and inocula are made in sterile, cation adjusted Mueller-Hinton Broth (CAMHB) (Remel) for all but S. pneumoniae [CAMHB with 2-5% lysed horse blood (Remel)] and H. influenzae [Haemophilus Test Medium (Remel)]. An inoculum volume of 100 μl is added to wells containing 100 μl of broth with 2-fold serial dilutions of drug. All inoculated microdilution trays are incubated in ambient air at 35° C. for 18-24 hours, except for S. pneumoniae, and H. influenzae (both at 5-10% CO2).
(§4) Following appropriate incubation, the MIC is determined and the MIC is defined as the lowest concentration of the drug that prevented visible growth.
as §1, with “8” for “4”
(§5) Following appropriate incubation, the MIC is determined and the MIC is defined as the lowest concentration of the drug that prevented visible growth. […] Antibacterial activity of representative compounds of the invention were compared against telitromycin.

[2] = tested on: Streptococcus pneumoniae Stpn_280-962; settings: Table 7, Strain ID H (Table 6): S. pneumoniae Stpn_280-962
Procedure: as §1, §2, §3, §4
as §1, with “8” for “4”
as §5

[3] = tested on: Streptococcus pneumoniae Stpn_297-749; settings: Table 7, Strain ID G (Table 6): S. pneumoniae Stpn_297-749
Procedure: as §1, §2, §3, §4
as §1, with “8” for “4”
as §5

[4] = tested on: Streptococcus pyogenes Stpy_8668; settings: Table 7, Strain ID E (Table 6): S. pyogenes Stpy_8668
Procedure: as §1, §2, §3, §4
as §1, with “8” for “4”
as §5

CC[C@H]1OC(=O)[C@H](C)C(=O)[C@H](C)[C@@H](OC2O[C@H](C)C[C@H](N(C)C)[C@H]2O)[C@@](C)(OC)C[C@@H](C)C(=O)[C@H](C)[C@H]2N(CCCCn3cnc(-c4ccncc4)c3)C(=O)O[C@]12CC (stereo partly drawn) [Example 28, (3aS,4R,7R,9R,10R,11S,13R,15R,15aR)-3a,4-DIETHYL-11-METHOXY-7,9,11,13,15-PENTAMETHYL-2,6,8,14-TETRAOXO-1-[4-(4-PYRIDIN-4-YL-1H-IMIDAZOL-1-YL)BUTYL]TETRADECAHYDRO-1H-OXACYCLOTETRADECINO[4,3-D][1,3]OXAZOL-10-YL-3,4,6-TRIDEOXY-3-(DIMETHYLAMINO)-D-XYLO-HEXOPYRANOSIDE]
MIC [1]: =0.05 | MIC [2]: =0.05 | MIC [3]: =0.05 | MIC [4]: =0.05

CC[C@H]1OC(=O)[C@@](C)(F)C(=O)[C@H](C)[C@@H](OC2O[C@H](C)C[C@H](N(C)C)[C@H]2O)[C@@](C)(OC)C[C@@H](C)C(=O)[C@H](C)[C@H]2N(CCCCn3cnc(-c4ccc(C)nc4)c3)C(=O)O[C@]12CC (stereo partly drawn) [Example 30, (3aS,4R,7S,9R,10R,11S,13R,15R,15aR)-3a,4-diethyl-7-fluoro-11-methoxy-7,9,11,13,15-pentamethyl-1-{4-[4-(6-methylpyridin-3-yl)-1H-imidazol-1-yl]butyl}-2,6,8,14-tetraoxotetradecahydro-2H-oxacyclotetradecino[4,3-d][1,3]oxazol-10-yl 3,4,6-trideoxy-3-(dimethylamino)-D-xylo-hexopyranoside]
MIC [1]: =0.05 | MIC [2]: =0.05 | MIC [3]: =0.05 | MIC [4]: =0.05

CC[C@H]1OC(=O)[C@H](C)C(=O)[C@H](C)[C@@H](OC2O[C@H](C)C[C@H](N(C)C)[C@H]2O)[C@@](C)(OC)C[C@@H](C)C(=O)[C@H](C)[C@H]2N(CCCCn3cnc4ncccc43)C(=O)O[C@]12CC (stereo partly drawn) [Example 22, (3aS,4R,7R,9R,10R,11S,13R,15R,15aR)-3a,4-diethyl-1-[4-(1H-imidazo[4,5-b]pyridin-1-yl)butyl]-11-methoxy-7,9,11,13,15-pentamethyl-2,6,8,14-tetraoxotetradecahydro-2H-oxacyclotetradecino[4,3-d][1,3]oxazol-10-yl-3,4,6-trideoxy-3-(dimethylamino)-D-xylo-hexopyranoside]
MIC [1]: =0.05 | MIC [2]: =0.05 | MIC [3]: =0.05 | MIC [4]: =0.05

CC[C@H]1OC(=O)[C@H](C)C(=O)[C@H](C)[C@@H](OC2O[C@H](C)C[C@H](N(C)C)[C@H]2O)[C@@](C)(OC)C[C@@H](C)C(=O)[C@H](C)[C@H]2N(CCN(C)Cc3cccnc3)C(=O)O[C@]12CC (stereo partly shown) [Example 23]
MIC [1]: =0.05 | MIC [2]: =0.05 | MIC [3]: =0.05 | MIC [4]: =0.05

CC[C@H]1OC(=O)[C@H](C)C(=O)[C@H](C)[C@@H](OC2O[C@H](C)C[C@H](N(C)C)[C@H]2O)[C@@](C)(OC)C[C@@H](C)C(=O)[C@H](C)[C@H]2N(CCCCn3cnc(-c4ccc(C)nc4)c3)C(=O)O[C@]12CC (stereo partly drawn) [Example 29, (3aS,4R,7R,9R,10R,11S,13R,15R,15aR)-3a,4-diethyl-11-methoxy-7,9,11,13,15-pentamethyl-1-{4-[4-(6-methylpyridin-3-yl)-1H-imidazol-1-yl]butyl}-2,6,8,14-tetraoxotetradecahydro-2H-oxacyclotetradecino[4,3-d][1,3]oxazol-10-yl-3,4,6-trideoxy-3-(dimethylamino)-D-xylo-hexopyranoside]
MIC [1]: =0.05 | MIC [2]: =0.05 | MIC [3]: =0.05 | MIC [4]: =0.05

CC[C@H]1OC(=O)[C@H](C)C(=O)[C@H](C)[C@@H](OC2O[C@H](C)C[C@H](N(C)C)[C@H]2O)[C@@](C)(OC)C[C@@H](C)C(=O)[C@H](C)[C@H]2N(CCCCn3cnc(-c4cccnc4)c3C)C(=O)O[C@]12CC (stereo partly drawn) [Example 21, (3aS,4R,7R,9R,10R,11S,13R,15R,15aR)-3a,4-DIETHYL-11-METHOXY-7,9,11,13,15-PENTAMETHYL-1-[4-(5-METHYL-4-PYRIDIN-3-YL-1H-IMIDAZOL-1-YL)BUTYL]-2,6,8,14-TETRAOXOTETRADECAHYDRO-2H-OXACYCLOTETRADECINO[4,3-D][1,3]OXAZOL-10-YL-3,4,6-TRIDEOXY-3-(DIMETHYLAMINO)-D-XYLO-HEXOPYRANOSIDE]
MIC [1]: =0.05 | MIC [2]: =0.05 | MIC [3]: =0.05 | MIC [4]: =0.05

CC[C@H]1OC(=O)[C@H](C)C(=O)[C@H](C)[C@@H](OC2O[C@H](C)C[C@H](N(C)C)[C@H]2O)[C@@](C)(OC)C[C@@H](C)C(=O)[C@H](C)[C@H]2N(CCCCn3cnc(-c4cncnc4)c3)C(=O)O[C@]12CC (stereo partly drawn) [Example 25, (3aS,4R,7R,9R,10R,11S,13R,15R,15aR)-3a,4-diethyl-11-methoxy-7,9,11,13,15-pentamethyl-2,6,8,14-tetraoxo-1-[4-(4-pyrimidin-5-yl-1H-imidazol-1-yl)butyl]tetradecahydro-2H-oxacyclotetradecino[4,3-d][1,3]oxazol-10-yl-3,4,6-trideoxy-3-(dimethylamino)-D-xylo-hexopyranoside]
MIC [1]: =0.05 | MIC [2]: =0.05 | MIC [3]: =0.05 | MIC [4]: =0.05

CC[C@H]1OC(=O)[C@@](C)(F)C(=O)[C@H](C)[C@@H](OC2O[C@H](C)C[C@H](N(C)C)[C@H]2O)[C@@](C)(OC)C[C@@H](C)C(=O)[C@H](C)[C@H]2N(CCCCc3ccc4ccccc4n3)C(=O)O[C@]12CC (stereo partly drawn) [Example 19, (3aS,4R,7S,9R,10R,11S,13R,15R,15aR)-3a,4-diethyl-7-fluoro-11-methoxy-7,9,11,13,15-pentamethyl-2,6,8,14-tetraoxo-1-(4-quinolin-2-ylbutyl)tetradecahydro-2H-oxacyclotetradecino[4,3-d][1,3]oxazol-10-yl-3,4,6-trideoxy-3-(dimethylamino)-D-xylo-hexopyranoside]
MIC [1]: =0.05 | MIC [2]: =0.05 | MIC [3]: =0.05

CC[C@H]1OC(=O)[C@@](C)(F)C(=O)[C@H](C)[C@@H](OC2O[C@H](C)C[C@H](N(C)C)[C@H]2O)[C@@](C)(OC)C[C@@H](C)C(=O)[C@H](C)[C@H]2N(CCCCc3ccnc4ccccc34)C(=O)O[C@]12CC (stereo partly drawn) [Example 17, (3aS,4R,7S,9R,10R,11S,13R,15R,15aR)-3a,4-diethyl-7-fluoro-11-methoxy-7,9,11,13,15-pentamethyl-2,6,8,14-tetraoxo-1-(4-quinolin-4-ylbutyl)tetradecahydro-2H-oxacyclotetradecino[4,3-d][1,3]oxazol-10-yl-3,4,6-trideoxy-3-(dimethylamino)-D-xylo-hexopyranoside]
MIC [1]: =0.05 | MIC [2]: =0.05 | MIC [3]: =0.05

CC[C@H]1OC(=O)[C@@](C)(F)C(=O)[C@H](C)[C@@H](OC2O[C@H](C)C[C@H](N(C)C)[C@H]2O)[C@@](C)(OC)C[C@@H](C)C(=O)[C@H](C)[C@H]2N(CCCCn3cnc4ncccc43)C(=O)O[C@]12CC (stereo partly drawn) [Example 27, (3aS,4R,7S,9R,10R,11S,13R,15R,15aR)-3a,4-diethyl-7-fluoro-1-[4-(1H-imidazo[4,5-b]pyridin-1-yl)butyl]-11-methoxy-7,9,11,13,15-pentamethyl-2,6,8,14-tetraoxotetradecahydro-2H-oxacyclotetradecino[4,3-d][1,3]oxazol-10-yl-3,4,6-trideoxy-3-(dimethylamino)-D-xylo-hexopyranoside]
MIC [2]: =0.025 | MIC [3]: =0.025 | MIC [4]: =0.025
